Structures are written as SMILES. Like-named read-outs stand apart in the source and are kept apart here.

We go through 31 compounds from patent publication US20240368096A1 (Enanta Pharmaceuticals, Inc., priority 2022, published 2024).

One assay addresses T1, NTCP (Homo sapiens, UniProt Q14973).
T1 construct: expressed in transfected cells; host or cells: HepG2-NTCP (clone A3, kept under puromycin)
T1 sequence (Q14973 1-349): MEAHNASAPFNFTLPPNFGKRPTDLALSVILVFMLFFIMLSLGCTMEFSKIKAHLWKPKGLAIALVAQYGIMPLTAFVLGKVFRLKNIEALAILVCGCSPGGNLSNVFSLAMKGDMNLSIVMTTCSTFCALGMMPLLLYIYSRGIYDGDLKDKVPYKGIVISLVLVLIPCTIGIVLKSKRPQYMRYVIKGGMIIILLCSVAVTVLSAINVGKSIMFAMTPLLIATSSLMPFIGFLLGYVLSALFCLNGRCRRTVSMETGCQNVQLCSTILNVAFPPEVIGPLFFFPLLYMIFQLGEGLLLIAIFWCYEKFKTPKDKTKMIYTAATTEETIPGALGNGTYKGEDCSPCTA
The assay can be described thus: HepG2-NTCP preS1 binding competition assay (FITC-labeled myristoylated preS1 peptide). The settings on record: HepG2-NTCP cells; competition with FITC-labeled preS1 peptide. Here is the method:
HepG2-NTCP preS1 Binding Competition Assay
Myristoylated preS1 peptide (2-48 aa) conjugated to a C-terminal FITC tag was synthesized to evaluate preS1 binding to NTCP-expressing cells. HepG2-NTCP cells seeded in 384-wells were pre-treated with compounds for 2 hours prior to the addition of FITC-labeled preS1 peptide. After co-incubation for 30 minutes, unbound FITC-preS1 peptide was washed twice with PBS, and the fluorescence of preS1-FITC bound to cell surface was detected by Envision plate reader. EC50 ranges are as follows: A<0.1 μM; B 0.1-1 μM; C>1 μM.

In another assay the test system is HBV. In words: HBV infection in HepG2-NTCP cells (HBeAg AlphaLISA in supernatants). In kind it is cell-based. The settings on record: Hepatitis B virus, 192 h. The gist of the method:
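Readout was day-8 supernatant HBeAg by AlphaLISA, with EC50 set against DMSO controls and binned A<0.1 μM, B 0.1-1 μM, C>1 μM. Compounds were added 2 h before HBV (2000 GE/cell, 4% PEG, 0.5% DMSO) to HepG2-NTCP A3 cells; from day 1 medium held 2.5% DMSO.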
(In general: Bead proximity is the source of the signal in Alpha formats.)

The mark [1] stands for this setting: HBV infection of HepG2-NTCP cells, HBeAg in supernatants at day 8 post infection, read-out: Cellular EC50.

Usually EC50 stands for the concentration that produces a half-maximal response. Take `CN1[C@H](C2CCCCC2)CN(c2csc(Cl)c2)c2cc(Cl)c(-c3ccc(F)c(C(=O)O)c3)cc2S1(=O)=O` [Example 316, (R)-5-(7-chloro-5-(5-chlorothiophen-3-yl)-3-cyclohexyl-2-methyl-1,1-dioxido-2,3,4,5-tetrahydrobenzo[f][1,2,5]thiadiazepin-8-yl)-2-fluorobenzoic acid]: the EC50 on NTCP was less than 100 nM; with HBV (setting [1]), less than 0.1 µM.

As to `CN1[C@H](C2CCCCC2)CN(CC2COC2)c2cc(Cl)c(-c3ccc(F)c(C(=O)O)c3)cc2S1(=O)=O` [Example 320], the EC50 at NTCP was greater than 1000 nM; with HBV (read-out: Cellular EC50 (μM)), greater than 1 µM.

With `COc1cc2c(cc1-c1ccc(F)c(C(=O)O)c1)S(=O)(=O)N(C)[C@H](C1CCCCC1)CN2c1ccccc1` [Example 348], the EC50 on NTCP was less than 100 nM; with HBV (setting [1]) it was less than 0.1 µM.

`CN1[C@H](C2CCCCC2)CN(c2ccccc2)c2cc(OCc3c[nH]cn3)c(-c3ccc(F)c(C(=O)O)c3)cc2S1(=O)=O` [Example 391]: the EC50 on NTCP is greater than 1000 nM; in the assay with HBV (read-out: Cellular EC50 (μM)), greater than 1 µM.

Take `CCCS(=O)(=O)Nc1ccc(-c2cc3c(cc2Cl)N(c2ccccc2)C[C@@H](C2CCCCC2)N(C)S3(=O)=O)cc1C(=O)O` [Example 274]: the EC50 at NTCP is less than 100 nM; with HBV (setting [1]), less than 0.1 µM.

For `CN1[C@H](C2CCCCC2)CN(c2ccccc2)c2cc(Cl)c(N3C[C@H](C(=O)O)[C@@H](c4ccccc4)C3)cc2S1(=O)=O` [Example 612], the figures for the EC50 at NTCP and in the assay on HBV (setting [1]) were 100 to 1000 nM and less than 0.1 µM, respectively.

Turning to `CC(C)CN1C[C@@H](C2CCCCC2)N(C)S(=O)(=O)c2cc(-c3ccc(F)c(C(=O)O)c3)c(Cl)cc21` [Example 325], the EC50 at NTCP is less than 100 nM; in the assay on HBV (setting [1]), less than 0.1 µM.

Turning to `CN1[C@H](C2CCCCC2)CN(c2ccccc2)c2cc(Cl)c(N3C[C@H]4C[C@@]4(C(=O)O)C3)cc2S1(=O)=O` [Example 615], the EC50 on NTCP is less than 100 nM; in the assay with HBV (setting [1]) it was 0.1 to 1 µM.

As to `Cc1cc(-c2cc3c(cc2OCC(F)(F)F)N(c2ccccc2)C[C@@H](C2CCCCC2)N(C)S3(=O)=O)sc1C(=O)O` [Example 512, (R)-5-(3-cyclohexyl-2-methyl-1,1-dioxido-5-phenyl-7-(2,2,2-trifluoroethoxy)-2,3,4,5-tetrahydrobenzo[f][1,2,5]thiadiazepin-8-yl)-3-methylthiophene-2-carboxylic acid], the 50% effective concentration (EC50) on NTCP is less than 100 nM; in the assay with HBV (setting [1]) it was less than 0.1 µM.

With `CN1[C@H](C2CCCCC2)CN(C2CCOCC2)c2cc(Cl)c(-c3ccc(F)c(C(=O)O)c3)cc2S1(=O)=O` [Example 321], the values for the EC50 on NTCP and in the assay on HBV (setting [1]) were 100 to 1000 nM and 0.1 to 1 µM, respectively.

On to `CCOc1ccccc1N1C[C@@H](C2CCCCC2)N(C)S(=O)(=O)c2cc(-c3ccc(F)c(C(=O)O)c3)c(Cl)cc21` [Example 307], for which the EC50 was greater than 1000 nM on NTCP and greater than 1 µM in the assay on HBV (read-out: Cellular EC50 (μM)).

Consider `CC(C)COC(=O)Nc1cc(-c2cc3c(cc2Cl)N(c2ccccc2)C[C@@H](C2CCCCC2)N(C)S3(=O)=O)sc1C(=O)O` [Example 241], for which the figures for the EC50 on NTCP and in the assay with HBV (setting [1]) were less than 100 nM and less than 0.1 µM, respectively.

As to `CN1[C@H](C2CCCCC2)CN(c2ncco2)c2cc(Cl)c(-c3ccc(F)c(C(=O)O)c3)cc2S1(=O)=O` [Example 318], the results for the EC50 at NTCP and in the assay on HBV (read-out: Cellular EC50 (μM)) were greater than 1000 nM and greater than 1 µM, respectively.

Take `CN1[C@H](C2CCCCC2)CN(c2ccccc2)c2cc(F)c(-c3ccc(NC(=O)OCc4ccccc4)c(C(=O)O)c3)cc2S1(=O)=O` [Example 235, (R)-2-(((benzyloxy)carbonyl)amino)-5-(3-cyclohexyl-7-fluoro-2-methyl-1,1-dioxido-5-phenyl-2,3,4,5-tetrahydrobenzo[f][1,2,5]thiadiazepin-8-yl)benzoic acid]: the figures for the EC50 at NTCP and in the assay on HBV (setting [1]) were less than 100 nM and less than 0.1 µM, respectively.

Consider `CN1[C@H](C2CCCCC2)CN(c2ccccc2)c2cc(Cl)c(N3C[C@@H](C(=O)O)[C@H](c4ccccc4)C3)cc2S1(=O)=O` [Example 613], for which the EC50 on NTCP was 100 to 1000 nM; in the assay on HBV (setting [1]), less than 0.1 µM.

Regarding `CN1[C@H](C2CCCCC2)CN(c2ccccc2)c2cc(Cl)c(N3C[C@H](C(=O)O)[C@@H](C(F)(F)F)C3)cc2S1(=O)=O` [Example 614], the half-maximal effective concentration (EC50) on NTCP was less than 100 nM; with HBV (setting [1]), less than 0.1 µM.

`CC(=O)NS(=O)(=O)c1ccc(-c2cc3c(cc2Cl)N(c2ccccc2)C[C@@H](C2CCCCC2)N(C)S3(=O)=O)s1` [Example 225]: the EC50 at NTCP fell in the range of 100 to 1000 nM; in the assay on HBV (setting [1]), 0.1 to 1 µM.

Regarding `CN1[C@H](C2CCCCC2)CN(c2ccccc2)c2cc(Cl)c([C@H]3C[C@H](C(=O)O)C3)cc2S1(=O)=O` [Example 608, (1R,3r)-3-((R)-7-chloro-3-cyclohexyl-2-methyl-1,1-dioxido-5-phenyl-2,3,4,5-tetrahydrobenzo[f][1,2,5]thiadiazepin-8-yl)cyclobutane-1-carboxylic acid], the EC50 on NTCP was in the range of 100 to 1000 nM; with HBV (setting [1]) it was 0.1 to 1 µM.

Turning to `CN1[C@H](C2CCCCC2)CN(c2ccccc2)c2cc(Cl)c(-c3cc(NC(=O)OCC(F)F)c(C(=O)O)s3)cc2S1(=O)=O` [Example 242], the EC50 is less than 100 nM at NTCP and less than 0.1 µM in the assay on HBV (setting [1]).

On to `COCCOc1cc2c(cc1-c1cc(F)c(C(=O)O)s1)S(=O)(=O)N(C)[C@H](C1CCCCC1)CN2c1ccccc1` [Example 486], for which the 50% effective concentration (EC50) at NTCP is less than 100 nM; in the assay with HBV (setting [1]), less than 0.1 µM.

In the case of `CN1[C@H](C2CCCCC2)CN(c2ccccc2)c2cc(Cl)c(N3CCC(F)(C(=O)O)C3)cc2S1(=O)=O` (mixture of isomers) [Example 609, 1-((R)-7-chloro-3-cyclohexyl-2-methyl-1,1-dioxido-5-phenyl-2,3,4,5-tetrahydrobenzo[f][1,2,5]thiadiazepin-8-yl)-3-fluoropyrrolidine-3-carboxylic acid], the concentration for a half-maximal effect (EC50) is less than 100 nM on NTCP and less than 0.1 µM in the assay with HBV (setting [1]).

With `COC(C)(C)COC(=O)Nc1cc(-c2cc3c(cc2Cl)N(c2ccccc2)C[C@@H](C2CCCCC2)N(C)S3(=O)=O)sc1C(=O)O` [Example 239, (R)-5-(7-chloro-3-cyclohexyl-2-methyl-1,1-dioxido-5-phenyl-2,3,4,5-tetrahydrobenzo[f][1,2,5]thiadiazepin-8-yl)-3-(((2-methoxy-2-methylpropoxy)carbonyl)amino)thiophene-2-carboxylic acid], the EC50 at NTCP was less than 100 nM; in the assay on HBV (setting [1]), less than 0.1 µM.

As to `CCCCC1CN(c2ccccc2)c2cc(CN3CCCC3)c(-c3ccc(F)c(C(=O)O)c3)cc2S(=O)(=O)N1C` (stereo not shown) [Example 563, 5-(3-butyl-2-methyl-1,1-dioxido-5-phenyl-7-(pyrrolidin-1-ylmethyl)-2,3,4,5-tetrahydrobenzo[f][1,2,5]thiadiazepin-8-yl)-2-fluorobenzoic acid], the EC50 is less than 100 nM at NTCP and 0.1 to 1 µM in the assay on HBV (setting [1]).

Regarding `CN1[C@H](C2CCCCC2)CN(c2nccs2)c2cc(Cl)c(-c3ccc(F)c(C(=O)O)c3)cc2S1(=O)=O` [Example 317], the EC50 is 100 to 1000 nM at NTCP and 0.1 to 1 µM in the assay with HBV (setting [1]).

As for `CCCCCN1C[C@@H](C2CCCCC2)N(C)S(=O)(=O)c2cc(-c3ccc(F)c(C(=O)O)c3)c(Cl)cc21` [Example 323], the EC50 at NTCP was less than 100 nM; with HBV (setting [1]), less than 0.1 µM.

Regarding `COCCOc1cc2c(cc1-c1ccc(F)c(C(=O)O)c1)S(=O)(=O)N(C)[C@H](C1CCCCC1)CN2c1ccccc1` [Example 388], the values for the concentration for a half-maximal effect (EC50) on NTCP and in the assay on HBV (setting [1]) were less than 100 nM and less than 0.1 µM, respectively.

With `CN1[C@H](C2CCCCC2)CN(c2ccccc2)c2cc(C34CC(C(F)(F)F)(C3)C4)c(-c3ccc(F)c(C(=O)O)c3)cc2S1(=O)=O` [Example 595], the EC50 on NTCP is less than 100 nM; in the assay on HBV (setting [1]) it was less than 0.1 µM.

In the case of `CCOC(=O)Nc1cc(-c2cc3c(cc2Cl)N(c2ccccc2)C[C@@H](C2CCCCC2)N(C)S3(=O)=O)sc1C(=O)O` [Example 240], the EC50 on NTCP was less than 100 nM; in the assay with HBV (setting [1]), less than 0.1 µM.

`CCCS(=O)(=O)Nc1cc(-c2cc3c(cc2Cl)N(c2ccccc2)C[C@@H](C2CCCCC2)N(C)S3(=O)=O)sc1C(=O)O` [Example 275, (R)-5-(7-chloro-3-cyclohexyl-2-methyl-1,1-dioxido-5-phenyl-2,3,4,5-tetrahydrobenzo[f][1,2,5]thiadiazepin-8-yl)-3-(propylsulfonamido)thiophene-2-carboxylic acid]: the 50% effective concentration (EC50) was less than 100 nM on NTCP and less than 0.1 µM in the assay with HBV (setting [1]).

`CCCCOC(=O)Nc1cc(-c2cc3c(cc2Cl)N(c2ccccc2)C[C@@H](C2CCCCC2)N(C)S3(=O)=O)sc1C(=O)O` [Example 246]: the EC50 at NTCP was less than 100 nM; in the assay with HBV (setting [1]), less than 0.1 µM.

As to `CC(C)C(=O)NS(=O)(=O)c1ccc(-c2cc3c(cc2Cl)N(c2ccccc2)C[C@@H](C2CCCCC2)N(C)S3(=O)=O)s1` [Example 227], the EC50 at NTCP was in the range of 100 to 1000 nM.
